Data: ChEMBL document CHEMBL1153522, “Spirocyclic delta opioid receptor agonists for the treatment of pain: discovery of N,N-diethyl-3-hydroxy-4-(spiro[chromene-2,4'-piperidine]-4-yl) benzamide (ADL5747)” (J Med Chem, 2009)

How the values were obtained:
[1] = Systemic clearance in rat at 2.5 mg/kg, iv administered as single dose; assay type: ADME, organism-based; design: dose 2.5 mg/kg, route intravenous; conditions: in vivo
[2] = Volume of distribution at steady state in rat at 2.5 mg/kg, iv administered as single dose; assay type: ADME, organism-based; design: dose 2.5 mg/kg, route intravenous; conditions: in vivo, read-out: Vdss
[3] = Half life in rat at 2.5 mg/kg, iv administered as single dose; assay type: ADME, organism-based; design: dose 2.5 mg/kg, route intravenous; conditions: in vivo
[4] = AUC (0 to infinity) in rat at 2.5 mg/kg, iv administered as single dose; assay type: ADME, organism-based; design: time infinity, dose 2.5 mg/kg, route intravenous; conditions: plasma
[5] = Half life in rat at 10 mg/kg, po administered as single dose; assay type: ADME, organism-based; design: dose 10 mg/kg, route oral; conditions: in vivo
[6] = AUC (0 to infinity) in rat at 10 mg/kg, po administered as single dose; assay type: ADME, organism-based; design: time infinity, dose 10 mg/kg, route oral; conditions: plasma
[7] = Tmax in rat at 10 mg/kg, po administered as single dose; assay type: ADME, organism-based; design: dose 10 mg/kg, route oral; conditions: in vivo
[8] = Cmax in rat at 10 mg/kg, po administered as single dose; assay type: ADME, organism-based; design: dose 10 mg/kg, route oral; conditions: in vivo
[9] = Oral bioavailability in rat at 10 mg/kg administered as single dose; assay type: ADME, organism-based; conditions: in vivo
[10] = Systemic clearance in Beagle dog at 1 mg/kg, iv administered as single dose; assay type: ADME, organism-based, Canis lupus familiaris; design: dose 1 mg/kg, route intravenous; conditions: in vivo
[11] = Volume of distribution at steady state in Beagle dog at 1 mg/kg, iv administered as single dose; assay type: ADME, organism-based, Canis lupus familiaris; design: dose 1 mg/kg, route intravenous; conditions: in vivo, read-out: Vdss
[12] = Half life in Beagle dog at 1 mg/kg, iv administered as single dose; assay type: ADME, organism-based, Canis lupus familiaris; design: dose 1 mg/kg, route intravenous; conditions: in vivo
[13] = AUC (0 to infinity) in Beagle dog at 1 mg/kg, iv administered as single dose; assay type: ADME, organism-based, Canis lupus familiaris; design: time infinity, dose 1 mg/kg, route intravenous; conditions: plasma
[14] = Half life in Beagle dog at 3 mg/kg, po administered as single dose; assay type: ADME, organism-based, Canis lupus familiaris; design: dose 3 mg/kg, route oral; conditions: in vivo
[15] = AUC (0 to infinity) in Beagle dog at 3 mg/kg, po administered as single dose; assay type: ADME, organism-based, Canis lupus familiaris; design: time infinity, dose 3 mg/kg, route oral; conditions: plasma
[16] = Tmax in Beagle dog at 3 mg/kg, po administered as single dose; assay type: ADME, organism-based, Canis lupus familiaris; design: dose 3 mg/kg, route oral; conditions: in vivo
[17] = Cmax in Beagle dog at 3 mg/kg, po administered as single dose; assay type: ADME, organism-based, Canis lupus familiaris; design: dose 3 mg/kg, route oral; conditions: in vivo
[18] = Oral bioavailability in Beagle dog at 3 mg/kg administered as single dose; assay type: ADME, organism-based, Canis lupus familiaris; conditions: in vivo
[19] = species: Canis familiaris; experiment: Plasma concentration in Beagle dog after 15 to 30 mins; assay type: ADME, organism-based, Canis lupus familiaris; conditions: in vivo
[20] = Metabolic stability in rat liver microsomes assessed as compound remaining after 30 mins; assay type: ADME, Microsome; conditions: read-out: Stability
[21] = Metabolic stability in Beagle dog liver microsomes assessed as compound remaining after 30 mins; assay type: ADME, Canis lupus familiaris, Microsome; conditions: read-out: Stability
[22] = Metabolic stability in human liver microsomes assessed as compound remaining after 30 mins; assay type: ADME, Microsome; conditions: read-out: Stability
[23] = system: CYP3A4; experiment: In vitro stability in presence of human CYP3A4 assessed as compound remaining at 1 uM after 1 hr; assay type: ADME; conditions: read-out: Stability
[24] = system: CYP2C19; experiment: In vitro stability in presence of human CYP2C19 assessed as compound remaining at 1 uM after 1 hr; assay type: ADME; conditions: read-out: Stability
[25] = system: CYP2D6; experiment: In vitro stability in presence of human CYP2D6 assessed as compound remaining at 1 uM after 1 hr; assay type: ADME; conditions: read-out: Stability
[26] = AUC in rat plasma at 30 mg/kg, po administered as single dose after 6 hrs; assay type: ADME, organism-based; design: time < 6 hr, dose 30 mg/kg, route oral
[27] = system: Rattus norvegicus; experiment: fAUC in rat plasma at 30 mg/kg, po administered as single dose after 6 hrs; assay type: ADME, organism-based; design: dose 30 mg/kg, route oral; conditions: in vivo
[28] = AUC in rat brain raphe magnus at 30 mg/kg, po administered as single dose after 6 hrs; assay type: ADME, organism-based; design: dose 30 mg/kg, route oral; conditions: read-out: Drug uptake

SMILES: CCN(CC)C(=O)c1ccc(C2=CC3(CCNCC3)Oc3ccccc32)c(O)c1 [ADL-5747 FREE BASE]
- clearance [1]: 55 mL/min/kg
- Vd [2]: 18.1 L/kg
- half-life [3]: 5.3 h
- AUC(0-inf) [4]: 780 ng·h/mL
- half-life [5]: 4.9 h
- AUC(0-inf) [6]: 1150 ng·h/mL
- Tmax [7]: 1.3 h
- Cmax [8]: 246 ng/mL
- bioavailability [9]: 37.6%
- clearance [10]: 6.33 mL/min/kg
- Vd [11]: 5.1 L/kg
- half-life [12]: 12.2 h
- AUC(0-inf) [13]: 2640 ng·h/mL
- half-life [14]: 7.7 h
- AUC(0-inf) [15]: 4200 ng·h/mL
- Tmax [16]: 0.4 h
- Cmax [17]: 852 ng/mL
- bioavailability [18]: 54.5%
- Cp [19]: 808 ng/mL
- remaining at 0.5 h [20]: 59.7%
- remaining at 0.5 h [21]: 63.9%
- remaining at 0.5 h [22]: 94.5%
- remaining at 1 h, 1 µM [23]: 22.5%
- remaining at 1 h, 1 µM [24]: 78.4%
- remaining at 1 h, 1 µM [25]: 63.2%
- AUC at 6 h [26]: 4610 ng·h/mL
- fAUC [27]: 990 ng·h/mL
- AUC at 6 h [28]: 105 ng·h/mL
